Here are results for six compounds from ChEMBL document CHEMBL1142982, “Discovery of N-(4-(3-amino-1H-indazol-4-yl)phenyl)-N'-(2-fluoro-5-methylphenyl)urea (ABT-869), a 3-aminoindazole-based orally active multitargeted receptor tyrosine kinase inhibitor” (J Med Chem, 2007).

The nature of series [1]: Volume of distribution in cynomolgus monkey at […], iv. Format: ADME, organism-based, Macaca fascicularis. On the set-up: dose 2.5 mg/kg, route intravenous. The conditions noted are these: in vivo, read-out: Vdss.
Series [2] in a line: Clearance in Beagle dog at […], iv. The conditions noted are these: in vivo. On the set-up: dose 2.5 mg/kg, route intravenous. Format: ADME, organism-based, Canis lupus familiaris.
Series [3] in a line: Half life in Sprague-Dawley rat at 5 mg/kg, iv. The class given is ADME, organism-based. On the set-up: dose 5 mg/kg, route intravenous. To be noted: in vivo.
A short description of series [4]: Oral bioavailability in cynomolgus monkey at […], po. The conditions noted are these: in vivo. Format: ADME, organism-based, Macaca fascicularis.
A short description of series [5]: Volume of distribution in Sprague-Dawley rat at 5 mg/kg, iv. On the set-up: dose 5 mg/kg, route intravenous. To be noted: in vivo, read-out: Vdss. Format: ADME, organism-based.
Series [6] can be described thus: Clearance in cynomolgus monkey at […], iv. Format: ADME, organism-based, Macaca fascicularis. On the set-up: dose 2.5 mg/kg, route intravenous. To be noted: in vivo.
Series [7] in a line: AUC in cynomolgus monkey at […], po. The class given is ADME, organism-based, Macaca fascicularis. On the set-up: dose 2.5 mg/kg, route oral. The conditions noted are these: plasma.
Series [8] in a line: Aqueous solubility at pH 7 at room temperature. The class given is physicochemical. To be noted: buffer.
Series [9] is described as follows: Lipophilicity, log D at pH 7.4. The conditions noted are these: buffer. Format: physicochemical.
Series [10] in a line: Clearance in Sprague-Dawley rat at 5 mg/kg, iv. The conditions noted are these: in vivo.
Series [11] in a line: AUC in Beagle dog at […], po. The class given is ADME, organism-based, Canis lupus familiaris. On the set-up: dose 2.5 mg/kg, route oral. The conditions noted are these: plasma.
Series [12] can be described thus: Stability in monkey hepatocyte assessed as metabolic turnover after 6 hrs. Format: ADME, cell-based, Macaca mulatta. The conditions noted are these: rhesus monkey, hepatocytes.
The nature of series [13]: Oral bioavailability n Sprague-Dawley rat at 5 mg/kg, po. The conditions noted are these: in vivo. Format: ADME, organism-based.
A short description of series [14]: Stability in mouse hepatocyte assessed as metabolic turnover after 6 hrs. Format: ADME, cell-based. The conditions noted are these: hepatocytes.
A short description of series [15]: Volume of distribution in Beagle dog at […]. Format: ADME, organism-based, Canis lupus familiaris. On the set-up: dose 2.5 mg/kg. The conditions noted are these: in vivo, read-out: Vdss.
A short description of series [16]: Stability in human hepatocyte assessed as metabolic turnover after 6 hrs. The class given is ADME, cell-based. To be noted: hepatocytes, read-out: Stability.
Series [17] can be described thus: Oral bioavailability in Beagle dog at […], po. The class given is ADME, organism-based, Canis lupus familiaris. The conditions noted are these: in vivo.
Series [18] in a line: Oral bioavailability in CD1 mouse. Format: ADME, organism-based. To be noted: in vivo.
The nature of series [19]: AUC in Sprague-Dawley rat at 5 mg/kg, po. Format: ADME, organism-based. On the set-up: dose 5 mg/kg, route oral. The conditions noted are these: plasma.
Series [20] in a line: Half life in Beagle dog at […], iv. The class given is ADME, organism-based, Canis lupus familiaris. On the set-up: dose 2.5 mg/kg, route intravenous. To be noted: in vivo.
Series [21] in a line: Half life in cynomolgus monkey at […], iv. On the set-up: dose 2.5 mg/kg, route intravenous. The conditions noted are these: in vivo. Format: ADME, organism-based, Macaca fascicularis.
Series [22] can be described thus: Stability in dog hepatocyte assessed as metabolic turnover after 6 hrs. The class given is ADME, cell-based, Canis lupus familiaris. To be noted: hepatocytes.
The nature of series [23]: AUC in CD1 mouse at 10 mg/kg, po. Format: ADME, organism-based. On the set-up: dose 10 mg/kg, route oral. The conditions noted are these: plasma.

Values after ≈ are worked out from the molar mass of the structure shown.

In general, clearance refers to the volume of plasma or blood freed of the substance per unit of time. One may read the half-life as how long it takes for the measured level to halve. The bioavailability is dose-corrected exposure relative to a reference, in per cent. A word on the AUC: it is concentration integrated over time. What is called Solubility is the concentration that dissolves in the medium under given conditions. The logD is the decadic logarithm of the distribution of all forms, ionised or not, between an organic phase and buffer at a given pH. In the case of `Cc1ccc(F)c(NC(=O)Nc2ccc(-c3cccc4[nH]nc(N)c34)cc2)c1` [LINIFANIB], the figures for the Vd in [1], in series [5] and in series [15] were 2.2 L/kg, 1.1 L/kg and 1.2 L/kg, respectively. Besides, the clearance is 7.2 mL/min/kg in [2], 8.2 mL/min/kg in series [6] and 3.3 mL/min/kg in series [10]. Moreover, the values for the half-life in [3], in [20] and in series [21] were 3.6 h, 2 h and 3.1 h, respectively. Besides, the bioavailability in [4] was determined as 10.6%; in [13], 27%; in [17], 47%; in series [18] it was 100%. The area under the curve (AUC) stood at 600 ng·h/mL in [7], 1500 ng·h/mL in series [11], 6800 ng·h/mL in series [19] and 24.5 µM·h in series [23]. The Solubility in series [8] stood at 0.027 µg/mL (≈ 0.0719 µM). Also, the log distribution coefficient (logD) in series [9] turned out to be 4.2. Besides, the parent remaining at 6 h in series [12], in series [14] and in series [22] was 91% in each case. Moreover, the metabolised at 6 h in series [16] turned out to be 91%.
In series [18], `Nc1n[nH]c2cccc(-c3ccc(NC(=O)Nc4cccc(Cl)c4)cc3)c12` displayed a bioavailability of 50%. In [23], this compound registered an AUC of 15 µM·h.
Taken in the same sequence, the figures for `Cc1cccc(NC(=O)Nc2ccc(-c3ccc(OCCN4CCOCC4)c4[nH]nc(N)c34)cc2)c1` were 20% and 1 µM·h.
Taken in the same sequence, the figures for `Cc1cc(NC(=O)Nc2ccc(-c3cccc4[nH]nc(N)c34)cc2)ccc1F` were 66% and 10.9 µM·h.
Taken in the same sequence, the figures for `Cc1cccc(NC(=O)Nc2ccc(-c3cccc4[nH]nc(N)c34)cc2)c1` were 38% and 6.5 µM·h.
On to `Cc1cccc(NC(=O)Nc2ccc(-c3cccc4c3c(N)nn4C)cc2)c1`, for which, in series [18], the bioavailability is 89%. This compound also yielded an AUC in series [23] of 19.8 µM·h.
